One substance from patent US8470772B2, “Leptin agonist and methods of use” (Temple University—Of The Commonwealth System of Higher …, priority 2008, dated 2013) can be followed below.

Non-standard residues stand in square brackets, D forms with d. No end group written: not given here. *: point of attachment. βGlc = OC[C@H]1O[C@@H](*)[C@H](O)[C@@H](O)[C@@H]1O; Tyr(3,5-I2) = N[C@@H](Cc1cc(I)c(O)c(I)c1)C(=O)O; Dap = NC[C@H](N)C(=O)O

The subject of one data set is MCF-7 cells. Put plainly: MCF-7 cell stimulation (cell growth) assay, cell counts by trypan blue exclusion. The data set is classed as cell-based, human. To be noted: for MCF-7 cell count increase: no leptin. From the text: For the evaluation of the biological activity of the synthesized leptin Site III peptide fragments, human cell lines were selected in which the ObR expression level is known. Two ObR-positive human cell models were used: MCF-7 breast cancer cells and DU-45 prostate cancer cells. Both cell lines express ObR, and leptin and leptin analogues stimulate their growth (C. Garofalo, et al., Clin. Cancer Res., 2004, 10, 6466-6475; C. Garofalo, et al., Clin. Cancer Res., 2006, 12, 1447-1453). Normal mammary epithelial MCF-10 cells lacking ObR were used as a negative control (X. Hu, et al., J. Natl. Cancer Inst., 2002, 94, 1704-1711).
Biological activity of the Site III peptides was assayed as follows. MCF-7 cells were stimulated with 6 nM full-sized leptin. The smaller leptin fragments and analogs were added to the cell culture at a concentration of 10 nM, 100 nM or 1 μM. Leptin at […] concentration stimulated MCF-7 cell growth by approximately 40%, in line with previous observations (C. Garofalo, et al., Clin. Cancer Res., 2004, 10, 6466-6475). All Site III peptides bound to the extracellular domain of ObR as documented by dot-blot or Western-blot analysis. […] In fact, it reversed leptin induced stimulation of MCF-7 cells at as low as 10 nM peptide concentration, with an additional 50% reduction in cell counts at 1 μM. When the assay was run at a more reliably measurable 1 μM peptide concentration, a consistent 6% decrease in cell numbers could be observed compared to the leptin only samples. In summary, in the presence of exogenously added full-sized leptin these assays verified the strong antagonist activity of the Site III Ala,Ala mutant.
The cell stimulation activity of the Site III peptides was assayed as follows. Human leptin was purchased from R&D Systems and used at a concentration of 100 ng/mL (approximately 6 nM). MCF-7 and DU-45 cells naturally expressing ObR were grown in a standard medium DMEM:F12 plus 5% fetal bovine serum. MCF-10 was grown in serum-free mammalian epithelial growth medium supplemented with 100 ng/mL cholera toxin. Seventy percent confluent cultures were synchronized in serum-free medium (DMEM plus 10 μM FeSO4, plus 0.5% albumin) for 24 h and then treated with leptin and/or peptides (different doses) for 5 days. Cell counts before and after treatment were determined by counting the cells using trypan blue exclusion. All assays were conducted in triplicate and repeated at least twice.

The nature of data set [1]: In vivo biodistribution of DY675-labeled peptide by fluorescence imaging. To be noted: intraperitoneal, female Balb/c mice, up to 65 minutes. The protocol:
E1Free peptide was co-synthesized with the near-infrared absorbing fluorescent dye DY675 and the resultant labeled peptide was purified by RP-HPLC. Forty microgams of the peptide was injected intraperiotoneally into shaved and isoflurane anesthesized female Balb/c mice. For imaging of the biodistribution of the peptide, the animals were placed into a fluorescence microscope chamber under continuous isoflurane exposure. Fluorescence exposure pictures were taken with an IVIS microscope set to a 695 nm emission wavelength. Images were obtained once a minute for the first ten minutes after peptide addition and every five minutes afterwards, until a 65 minute stop point was reached.

Take “Tyr(I2)-Serβ(Glc)-Thr-Glu-Va1-Va1-Ala-Leu-Ser-Arg-Leu-Dap(Ac) ([Tyr(3,5-I2)]S(βGlc)TEVVALSRL[Dap](Ac)-NH2) [E1Free]”: the “MCF-7 cell count increase” value is given as 81% with MCF-7 cells (100 nM peptide) and 114% with MCF-7 cells (1000 nM peptide). Also, the “further increase of leptin-induced cell stimulation” value with MCF-7 cells (1000 nM peptide, in the presence of 6 nM leptin) is 84%. In addition, the “overall agonist character on cells expressing ObR” value with MCF-7 cells (in the presence and absence of leptin) is on record as “full agonists”. The biodistribution result in data set [1] was “localizes in the head, as well as the kidneys and liver”.
